# From patent publication US20230103631A1, “PEPTIDES AS SELECTIVE GIP RECEPTOR AGONISTS” (Sanofi, priority 2020, published 2023)
# *1 amine or outer side, *2 acyl side, *3 side chain or, on linkers, in order; H or OH if unused. Where a SMILES comes first, the peptide text is derived from it. Side-chain parts run from the residue outwards. [ ]: non-standard residue; d: D form. The star is where a group is joined. C20 diacid = O=C(O)CCCCCCCCCCCCCCCCCCC(=O)*; C18 diacid = O=C(O)CCCCCCCCCCCCCCCCC(=O)*; γGlu = O=C(O)[C@H](CCC(=O)[*:2])N[*:1]; AEEA = NCCOCCOCC(=O)O; Aib = CC(C)(N)C(=O)O
# Experiments:
# [1] = Dynamic light scattering (DLS) for the assessment of physical stability; assay type: physicochemical; details: DLS buffer system A
# Excerpt: A monochromatic and coherent light beam (laser) is used to illuminate the liquid sample. Dynamic Light Scattering (DLS) measures light scattered from particles (1 nm≤radius≤1 μm) that undergo Brownian motion. This motion is induced by collisions between the particles and solvent molecules, that themselves are moving due to their thermal energy. The diffusional motion of the particles results in temporal fluctuations of the scattered light (R. Pecora, Dynamic Light Scattering: Applications of Photon Correlation Spectroscopy, Plenum Press, 1985).
# The scattered light intensity fluctuations are recorded and transformed into an autocorrelation function. By fitting the autocorrelation curve to an exponential function, the diffusion coefficient D of the particles in solution can be derived. The diffusion coefficient is then used to calculate the hydrodynamic radius Rh (or apparent Stokes radius) through the Stokes-Einstein equation assuming spherical particles. This calculation is defined in ISO 13321 and ISO 22412 (International Standard ISO13321 Methods for Determination of Particle Size Distribution Part 8: Photon Correlation Spectroscopy, International Organisation for Standardisation (ISO) 1996; International Standard ISO22412 Particle Size Analysis—Dynamic Light Scattering, International Organisation for Standardisation, 2008).
# In case of polydisperse samples, the autocorrelation function is the sum of the exponential decays corresponding to each of the species. The temporal fluctuations of the scattered light can then be used to determine the size distribution profile of the particle fraction or family. The first order result is an intensity distribution of scattered light as a function of the particle size. The intensity distribution is naturally weighted according to the scattering intensity of each particle fraction or family. For biological materials or polymers, the particle scattering intensity is proportional to the square of the molecular weight. Thus, small amount of aggregates/agglomerates or presence or a larger particle species can dominate the intensity distribution. However, this distribution can be used as a sensitive detector for the presence of large material in the sample.
# The DLS technique produces distributions with inherent peak broadening. The polydispersity index % Pd is a measure of the width of the particle size distribution and is calculated by standard methods described in ISO13321 and ISO22412 [International Standard ISO13321 Methods for Determination of Particle Size Distribution Part 8: Photon Correlation Spectroscopy, International Organisation for Standardisation (ISO) 1996; International Standard ISO22412 Particle Size Analysis—Dynamic Light Scattering, International Organisation for Standardisation (ISO) 2008].
# Solutions from solid samples were prepared in buffer systems (see below) with a target concentration of 300 μM compound based on the previously determined % purity.
# DLS buffer system A) 20 mM phosphate buffer pH 7.4
# DLS buffer system B) 8 mM phosphate buffer pH 7.4, 14 mg/ml propylene glycol, 5.5 mg/ml phenol
# DLS buffer system C) 100 mM phosphate buffer pH 7.4, 2.7 mg/ml m-cresol Solutions were filtered through 0.22 μm pore size and filled into sterilized glass containers under laminar flow conditions. For every peptide solution, the apparent hydrodynamic radius (Rh), the corresponding Scattering Intensity (I), and the Mass Contribution (M) were determined as an average over 3-6 replicates from the intensity distribution of the scattered light averaging only high-quality measurements. Relative standard deviations (RSD) for these parameters were calculated from the same number of replicates. […]
# [2] = target: T1, human GIP receptor (hGIPR) (Homo sapiens, UniProt P48546); experiment: Binding assay, displacement of [125I]GIP from HEK-293 membranes expressing GIPR; details: [125I]GIP displacement
# T1 sequence (P48546 22-466): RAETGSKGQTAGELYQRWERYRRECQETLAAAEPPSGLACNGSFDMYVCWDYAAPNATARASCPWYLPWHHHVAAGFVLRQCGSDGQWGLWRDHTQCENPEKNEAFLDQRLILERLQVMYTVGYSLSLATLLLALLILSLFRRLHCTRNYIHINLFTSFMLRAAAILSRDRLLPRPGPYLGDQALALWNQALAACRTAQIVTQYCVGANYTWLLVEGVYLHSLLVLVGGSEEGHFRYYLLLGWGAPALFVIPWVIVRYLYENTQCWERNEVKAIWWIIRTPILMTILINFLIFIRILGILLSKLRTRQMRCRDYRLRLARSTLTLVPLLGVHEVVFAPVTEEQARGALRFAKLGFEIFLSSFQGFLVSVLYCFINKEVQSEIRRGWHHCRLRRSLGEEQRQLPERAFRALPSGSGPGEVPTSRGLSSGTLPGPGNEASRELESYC
# Experimental: HEK-293 cells recombinantly over-expressing GIPR or GLP-1R were grown to 50% confluency, washed with warm 1×PBS (Gibco) and detached in HEPES/EDTA-buffer (100 mM HEPES pH 7.5, 5 mM EDTA). Cells were harvested by centrifugation at 4° C. and 3000×g and the pellets were stored at −80° C. until further processing.
# After thawing on ice, pellets were resuspended in HEPES/EDTA-buffer and homogenized on ice for 1 min using Ultra-Turray T25. After subsequent sonification the cell debris was removed by centrifugation at 1000×g and 4° C. Supernatants were then ultra-centrifuged at 100000×g and 4° C. under vacuum for 30 min. Pellets were resuspended in HEPES/EDTA/NaCl-buffer (20 mM HEPES, 1 mM EDTA, 150 mM NaCl; add 1 Complete Mini Protease inhibitor cocktail to 10 ml buffer) and protein content was determined via BCA-Protein assay.
SMILES,I and SD (Scattering Intensity) ([1]; 0 weeks) [%],M and SD (Mass Contribution) ([1]; 0 weeks) [%],apparent Rh and SD ([1]; 0 weeks) [nm],I and SD (Scattering Intensity) ([1]; 4 weeks storage at 40° C.) [%],M and SD (Mass Contribution) ([1]; 4 weeks storage at 40° C.) [%],apparent Rh and SD ([1]; 4 weeks storage at 40° C.) [nm],IC50 [2] [nM]
"CC[C@H](C)[C@H](NC(=O)[C@H](Cc1ccccc1)NC(=O)[C@H](CCC(=O)O)NC(=O)[C@H](CCC(=O)O)NC(=O)[C@H](CCC(N)=O)NC(=O)[C@H](Cc1c[nH]cn1)NC(=O)[C@@H](NC(=O)[C@H](CCCNC(=N)N)NC(=O)[C@H](CC(=O)O)NC(=O)[C@H](CCCCNC(=O)COCCOCCNC(=O)COCCOCCNC(=O)CC[C@H](NC(=O)CCCCCCCCCCCCCCCCCCC(=O)O)C(=O)O)NC(=O)C(C)(C)NC(=O)[C@@H](NC(=O)[C@H](CO)NC(=O)[C@H](CC(C)C)NC(=O)[C@H](CC(=O)O)NC(=O)[C@H](CO)NC(=O)[C@@H](NC(=O)[C@H](Cc1ccccc1)NC(=O)[C@@H](NC(=O)CNC(=O)[C@H](CCC(=O)O)NC(=O)C(C)(C)NC(=O)[C@@H](N)Cc1ccc(O)cc1)[C@@H](C)O)[C@@H](C)CC)[C@@H](C)CC)[C@@H](C)CC)C(=O)N[C@@H](CCC(=O)O)C(=O)N[C@@H](Cc1c[nH]c2ccccc12)C(=O)N[C@@H](CC(C)C)C(=O)N[C@@H](CC(C)C)C(=O)N[C@@H](C)C(=O)N[C@@H](CCC(N)=O)C(=O)NCC(=O)N1CCC[C@H]1C(=O)N[C@@H](CO)C(=O)N[C@@H](CO)C(=O)NCC(=O)N[C@@H](C)C(=O)N1CCC[C@H]1C(=O)N1CCC[C@H]1C(=O)N1CCC[C@H]1C(=O)N[C@@H](CO)C(N)=O [SEQ ID NO: 10, H2N-Y-Aib-E-G-T-F-I-S-D-I-S-I-Aib-K[{AEEA}2-gGlu-C20OH]-DRIHQEEFIEWILAQGPSSGAPPPS-NH2] (H-Y[Aib]EGTFISDLSI[Aib]K([AEEA-AEEA-γGlu-C20 diacid])DRIHQEEFIEWLLAQGPSSGAPPPS-NH2)",60 ± 3,100 ± 0,1.97 ± 0.03,75 ± 3,100 ± 0,1.91 ± 0.04,0.3
"CC[C@H](C)[C@H](NC(=O)[C@H](Cc1ccccc1)NC(=O)[C@H](CCC(=O)O)NC(=O)[C@H](CCC(=O)O)NC(=O)[C@H](CCC(N)=O)NC(=O)[C@H](Cc1c[nH]cn1)NC(=O)[C@@H](NC(=O)[C@H](CCCNC(=N)N)NC(=O)[C@H](CC(=O)O)NC(=O)[C@H](CCCCNC(=O)COCCOCCNC(=O)COCCOCCNC(=O)CC[C@H](NC(=O)CCCCCCCCCCCCCCCCC(=O)O)C(=O)O)NC(=O)C(C)(C)NC(=O)[C@@H](NC(=O)[C@H](CO)NC(=O)[C@H](CC(C)C)NC(=O)[C@H](CC(=O)O)NC(=O)[C@H](CO)NC(=O)[C@@H](NC(=O)[C@H](Cc1ccccc1)NC(=O)[C@@H](NC(=O)CNC(=O)[C@H](CCC(=O)O)NC(=O)C(C)(C)NC(=O)[C@@H](N)Cc1ccc(O)cc1)[C@@H](C)O)[C@@H](C)CC)[C@@H](C)CC)[C@@H](C)CC)C(=O)N[C@@H](CCC(=O)O)C(=O)N[C@@H](Cc1c[nH]c2ccccc12)C(=O)N[C@@H](CC(C)C)C(=O)N[C@@H](CC(C)C)C(=O)N[C@@H](C)C(=O)N[C@@H](CCC(N)=O)C(=O)NCC(=O)N1CCC[C@H]1C(=O)N[C@@H](CO)C(=O)N[C@@H](CO)C(=O)NCC(=O)N[C@@H](C)C(=O)N1CCC[C@H]1C(=O)N1CCC[C@H]1C(=O)N1CCC[C@H]1C(=O)N[C@@H](CO)C(=O)O [SEQ ID NO: 11, H2N-Y-Aib-E-G-T-F-I-S-D-I-S-I-Aib-K[{AEEA}2-gGlu-C18OH]-DRIHQEEFIEWILAQGPSSGAPPPS-OH] (H-Y[Aib]EGTFISDLSI[Aib]K([AEEA-AEEA-γGlu-C18 diacid])DRIHQEEFIEWLLAQGPSSGAPPPS-OH)",96 ± 1,100 ± 0,1.82 ± 0.04,85 ± 2,100 ± 0,1.83 ± 0.05,0.5
